One assay addresses T1, 5-lipoxygenase (Rattus norvegicus, UniProt P12527).
T1 construct: endogenous in cells; host or cells: rat basophilic leukemia cells
T1 sequence (P12527 1-673): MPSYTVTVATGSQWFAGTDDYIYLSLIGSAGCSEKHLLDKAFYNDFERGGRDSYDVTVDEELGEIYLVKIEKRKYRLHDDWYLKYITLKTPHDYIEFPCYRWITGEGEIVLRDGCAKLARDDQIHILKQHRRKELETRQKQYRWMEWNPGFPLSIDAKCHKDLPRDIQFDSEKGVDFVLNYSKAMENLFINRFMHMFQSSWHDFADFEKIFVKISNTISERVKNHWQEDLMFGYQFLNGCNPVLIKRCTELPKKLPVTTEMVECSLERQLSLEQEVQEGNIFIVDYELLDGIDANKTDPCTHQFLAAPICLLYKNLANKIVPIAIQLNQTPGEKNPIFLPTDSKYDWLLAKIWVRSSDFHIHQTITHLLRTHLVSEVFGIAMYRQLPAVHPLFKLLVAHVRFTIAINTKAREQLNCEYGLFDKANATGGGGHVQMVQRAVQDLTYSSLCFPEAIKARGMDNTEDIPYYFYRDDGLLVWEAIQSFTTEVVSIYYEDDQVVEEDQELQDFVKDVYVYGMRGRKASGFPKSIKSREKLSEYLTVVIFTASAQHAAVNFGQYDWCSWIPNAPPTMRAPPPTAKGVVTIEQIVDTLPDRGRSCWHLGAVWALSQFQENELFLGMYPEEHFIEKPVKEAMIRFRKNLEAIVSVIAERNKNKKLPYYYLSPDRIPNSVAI
Briefly: Inhibition of 5-lipoxygenase in rat basophilic leukemia cells ([14C]-arachidonic acid, TLC). The conditions noted are these: for IC50: rat basophilic leukemia cells, standardized to nordihydroguaiaretic acid; for Quotient (IC50 cyclooxygenase (B) / 5-lipoxygenase (A)): selectivity. It counts as cell-based. As for the experimental part:
To 1 ml each of this suspension there was added indomethacin (10 μM) and calcium chlorid (2 mM) and then the mixture was incubated in presence or absence of a test compound for 3 minutes and thereafter with 20 μM of [^14 C]-arachidonic acid and 20 μM of the calcium ionophore A 23 187 for 10 minutes. The reaction was stopped by adding 20 μl of glacial acetic acid and then the mixture was extracted with ethyl acetate to isolate the metabolites of arachidonic acid formed by the enzymatic action of 5-lipoxygenase. These were separated by thin layer chromatography using a solvent mixture known to be suitable for leukotriene analysis [c.f. Jakschik et al., Biochem. Biophys. Res. Commun. 102, 624 (1981)]. The distribution of the radioactivity to the different metabolites was measured using a TLC Linear Analyzer. By bringing into relationship the percentages of the amount of the products formed under the action of 5-lipoxygenase (5-HETE, isomers of LTB4) in the controls (tests performed in absence of test compounds) and in the presence of test compounds of formula I in different concentrations the "IC50 -value" (i.e. the concentration of the test compound which causes an 50%-inhibition of the 5-lipoxygenase) is determined. For standardization these values then were brought into relationship to the IC50 -values determined in the same manner for the standard compound nordihydroguaiaretic acid.

For a further assay, the target named is T2, cyclooxygenase (Ovis aries, UniProt P05979).
T2 construct: suspension of sheep seminal vesicle microsomes; from tissue; host or cells: sheep seminal vesicle microsomes
T2 sequence (P05979 25-600): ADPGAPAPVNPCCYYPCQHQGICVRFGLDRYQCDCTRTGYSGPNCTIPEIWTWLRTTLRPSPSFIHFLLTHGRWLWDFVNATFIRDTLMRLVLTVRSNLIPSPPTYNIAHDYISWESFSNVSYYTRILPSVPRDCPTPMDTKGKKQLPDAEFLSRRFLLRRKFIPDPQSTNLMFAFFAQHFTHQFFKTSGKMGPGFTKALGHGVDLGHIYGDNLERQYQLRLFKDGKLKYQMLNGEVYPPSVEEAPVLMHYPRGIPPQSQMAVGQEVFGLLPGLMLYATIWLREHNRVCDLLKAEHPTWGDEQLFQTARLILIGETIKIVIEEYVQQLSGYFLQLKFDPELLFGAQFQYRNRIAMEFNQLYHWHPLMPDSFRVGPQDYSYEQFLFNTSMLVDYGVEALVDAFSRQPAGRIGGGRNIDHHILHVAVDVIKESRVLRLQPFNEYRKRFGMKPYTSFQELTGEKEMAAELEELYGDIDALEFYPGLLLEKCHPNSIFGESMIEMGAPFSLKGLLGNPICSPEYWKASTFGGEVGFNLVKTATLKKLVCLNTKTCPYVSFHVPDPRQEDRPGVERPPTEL
Kind of assay: Inhibition of cyclooxygenase in sheep seminal vesicle microsomes ([14C]-arachidonic acid, TLC). The format is biochemical. Particulars: pH 7.0, read-out: IC50 for inhibition of cyclooxygenase (B). The method, then: The effect of the test compounds on the activity of cyclooxygenase was tested using a suspension of sheep seminal vesicle microsomes in 50 mM potassium phosphate buffer of pH 7.0 which was incubated with the solvent only (as control) or with the test compound and [^14 C]-arachidonic acid. The "IC50 -values (B)" (i.e. the concentration of the test compound which causes an 50%-inhibition of the cyclooxygenase) were determined by thin layer chromatography and by means of a TLC-Linear-Analyzer.

Assay [1] concerns ex vivo iLTB4-formation (5-lipoxygenase activity) in whole blood of rats. Kind of assay: Inhibition of ex vivo iLTB4-formation in rat whole blood after oral administration. Also noted: species or system male rats (Wistar strain). Particulars: Rattus norvegicus, 21.5 mg/kg oral, blood taken 1 hour later. As for the experimental part: The bioavailability of the compounds of formula I after oral administration was characterized by means of an ex vivo biochemical assessment method described by Tateson et al. in Brit. Pharmacol., 94, 528 (1988).
Compounds of formula I were orally administered to male rats (Wistar strain). 1 hour later the rats were bled by heart puncture in letal CO2 -narcosis. The 5-lipoxygenase reaction was triggered by the addition of the calcium-ionophor A23187 to an end concentration of […] to aliquots of rat whole blood and subsequent incubation for 30 minutes at 37° C. in a water bath. At the end of the incubation the samples were centrifuged to collect the cell free plasma. The concentration of the immunoreactive LTB4 (iLTB4 ng/ml) in each plasma sample was determined by a LTB4 -radioimmunoassay (^3 H-LTB4 -RIA, Amersham) by means of a LTB4 -standard curve in diluted rat plasma. For calculation of the percent inhibition of ex vivo iLTB4 -formation in whole blood of rats treated with the compounds of formula I rats treated with appropiate vehicle solution were included in all experiments, aliquots of their blood were run in parallel and were processed in the same way as described. The mean iLTB4 -formation per ml plasma of these vehicle treated control rats served as 100 percent value of normal control 5-lipoxygenase activity. The percent inhibition of the ex vivo iLTB4 -formation after oral administration of compounds of formula I was calculated as follows: 100 minus 100 times the quotient of the mean iLTB4 concentration per ml plasma of the rats treated with compounds of formula I […] and the mean iLTB4 concentration per ml plasma of the control rats.

In the case of `CC(c1cccc(C#Cc2ccc(Cl)cc2)c1)N(O)C(N)=O` (centres unmarked) [Example 10d, N-Hydroxy-N-{1-[3-(4-chloro-phenylethynyl)-phenyl]-ethyl}-urea], the IC50 on 5-lipoxygenase is 550 nM; at cyclooxygenase, 500000 nM. The “Quotient (IC50 cyclooxygenase (B) / 5-lipoxygenase (A))” value on 5-lipoxygenase came to 909. The same compound returned an inhibition in vivo at 21.5 mg/kg in assay [1] of 99%.

Consider `NC(=O)N(O)Cc1ccc(C#Cc2ccsc2)cc1` [Example 16f, N-Hydroxy-N-[4-(thien-3-yl-ethynyl)-benzyl]-urea], for which, on 5-lipoxygenase, the IC50 was found to be 410 nM and the “Quotient (IC50 cyclooxygenase (B) / 5-lipoxygenase (A))” value turned out to be 1220. Besides, the IC50 on cyclooxygenase came to 500000 nM. Besides, the inhibition in vivo at 21.5 mg/kg in assay [1] came to 97%.

Regarding `CC(c1cccc(C#Cc2ccc(C(F)(F)F)cc2)c1)N(O)C(N)=O` (centres unmarked) [Example 11, N-Hydroxy-N-{1-[3-(4-trifluoromethyl-phenylethynyl)-phenyl]-ethyl}-urea], on 5-lipoxygenase, the 50% inhibitory concentration (IC50) was 670 nM and the “Quotient (IC50 cyclooxygenase (B) / 5-lipoxygenase (A))” value was above 746. In addition, the concentration for half-maximal inhibition (IC50) at cyclooxygenase is above 500000 nM. Further, at 21.5 mg/kg the inhibition in vivo in assay [1] was 76%.

Compound `CC(=O)N(O)Cc1cccc(C#Cc2ccc(C(C)C)cc2)c1` [Example 5e, N-[3-(4-Isopropyl-phenylethynyl)-benzyl]-acetohydroxamic acid] had an inhibition in vivo at 21.5 mg/kg in assay [1] of 82%.

Turning to `COc1cccc(C#Cc2cccc(C(C)N(O)C(N)=O)c2)c1` (centres unmarked) [Example 10c, N-Hydroxy-N-{1-[3-(3-methoxy-phenylethynyl)-phenyl]-ethyl}-urea], on 5-lipoxygenase, the IC50 is 270 nM and the “Quotient (IC50 cyclooxygenase (B) / 5-lipoxygenase (A))” value is above 1852. Besides, on cyclooxygenase, the IC50 was above 500000 nM.

As to `COc1ccc(C#Cc2cccc(C(C)N(O)C(C)=O)c2)cc1OC` (centres unmarked) [Example 5b, N-{1-[3-(3,4-Dimethoxy-phenylethynyl)-phenyl]-ethyl}-acetohydroxamic acid], at 5-lipoxygenase, half-maximal inhibition (IC50) required 280 nM and the “Quotient (IC50 cyclooxygenase (B) / 5-lipoxygenase (A))” value was above 1786. Besides, the IC50 on cyclooxygenase was above 500000 nM.

For the compound `CC(c1cccc(C#Cc2ccc(F)cc2)c1)N(O)C(N)=O` (centres unmarked) [Example 8b, N-Hydroxy-N-{1-[3-(4-fluorophenylethynyl)-phenyl]-ethyl}-urea], 21.5 mg/kg produced 99% inhibition in vivo in assay [1].

For the compound `COc1ccc(C#Cc2cccc(CN(O)C(N)=O)c2)cc1` [Example 10n, N-Hydroxy-N-[3-(4-methoxyphenylethynyl)-benzyl]-urea], on 5-lipoxygenase, the IC50 was 180 nM and the “Quotient (IC50 cyclooxygenase (B) / 5-lipoxygenase (A))” value is on record as above 2778. Besides, the IC50 at cyclooxygenase is above 500000 nM.

For `NC(=O)N(O)Cc1ccc(C#Cc2cccs2)cc1` [Example 16d, N-Hydroxy-N-[4-(thien-2-yl-ethynyl)-benzyl]-urea], the IC50 turned out to be 370 nM on 5-lipoxygenase and 500000 nM on cyclooxygenase. In addition, the “Quotient (IC50 cyclooxygenase (B) / 5-lipoxygenase (A))” value on 5-lipoxygenase was 1351.

In assay [1], `CC(=O)N(O)C(C)c1ccc(C#Cc2ccccc2)cc1` (centres unmarked) [Example 2a, N-{1-[4-(Phenylethynyl)-phenyl]-ethyl}-acetohydroxamic acid] showed an inhibition in vivo at 21.5 mg/kg of 76%.

As for `CC(C)c1ccc(C#Cc2cccc(CN(O)C(N)=O)c2)cc1` [Example 10e], testing at 21.5 mg/kg in assay [1] gave an inhibition in vivo of 81%.

Consider `CC(=O)N(O)C(C)c1cccc(C#Cc2ccc(Cl)cc2)c1` (centres unmarked) [Example 12, N-{1-[3-(4-Chloro-phenylethynyl)-phenyl]-ethyl}-acetohydroxamic acid], for which at 21.5 mg/kg the inhibition in vivo in assay [1] was 87%.

Consider `NC(=O)N(O)Cc1cccc(C#Cc2ccc(Cl)cc2)c1` [Example 10m, N-Hydroxy-N-[3-(4-chlorophenylethynyl)-benzyl]-urea], for which the IC50 was 260 nM against 5-lipoxygenase and above 500000 nM on cyclooxygenase. For the same compound, the “Quotient (IC50 cyclooxygenase (B) / 5-lipoxygenase (A))” value at 5-lipoxygenase is reported as above 1923.

Regarding `COc1ccccc1C#Cc1cccc(C(C)N(O)C(N)=O)c1` (centres unmarked) [Example 10g, N-Hydroxy-N-{1-[3-(2-methoxy-phenylethynyl)-phenyl]-ethyl}-urea], on 5-lipoxygenase, half-maximal inhibition (IC50) required 320 nM and the “Quotient (IC50 cyclooxygenase (B) / 5-lipoxygenase (A))” value is on record as 844. Besides, at cyclooxygenase, the half-maximal inhibitory concentration (IC50) worked out at 270000 nM.

These data come from US5202349A, “Substituted phenylacetylenes, pharmaceutical compositions containing these compounds and processes for the preparation of these compounds and compositions” (Gruenenthal GmbH, priority 1990, dated 1993).
